Test results from US8617524B2, “Depigmenting keratin materials utilizing dithiolane compounds” (L'Oreal, priority 2008, dated 2013).

What was measured:
[1] = test system: co-culture of keratinocytes and melanocytes; assay: Activity on constitutive melanogenesis (inhibition of melanin synthesis; thiouracil/leucine incorporation ratio); assay type: cell-based; settings: for Maximum Activity: inhibitory activity on melanin synthesis, ratio of incorporation of thiouracil to leucine, relative to 100% of the control without test compound
Procedure: (§1) The modulatory effect of the compounds on constitutive melanogenesis was measured according to the method described in FR-A-2,734,825 and also in the article by Schmidt et al., Anal. Biochem., 235(2), 1996, pp. 113-118. This test is performed on a co-culture of keratinocytes and melanocytes.
For the test compounds, the inhibitory activity on melanin synthesis was determined, by estimating the ratio of incorporation of thiouracil to the incorporation of leucine, relative to 100% of the control (the control corresponds to the test performed without test compound).

[2] = test system: co-culture of keratinocytes and melanocytes; assay: Cytotoxicity on a co-culture; assay type: cell-based
Procedure: as §1

SMILES | Maximum Activity [1] [%] | Cytotoxicity on a co-culture [2] | depigmenting action compared with arbutin and kojic acid ([1]; conclusion in words from the table of Example 25)
OC[C@H]1O[C@@H](Oc2ccc(O)cc2)[C@H](O)[C@@H](O)[C@@H]1O [Arbutin] | −44 | Non-cytotoxic | 
CC1(C(N)=O)CSSC1 [Compound 2, 4-methyl-1,2-dithiolane-4-carboxamide] | −76 | 100 µM | greater depigmenting action than arbutin and kojic acid
O=c1cc(CO)occ1O [Kojic acid] | −30 | 100 µM | 
